{
  "source": "ChEMBL document CHEMBL3526078",
  "about": "“Pharmacokinetics and hepatic uptake of eltrombopag, a novel platelet-increasing agent” (Drug Metab Dispos, 2011)",
  "biological_target": "T1, Solute carrier family 22 member 1 (Homo sapiens, UniProt O15245)",
  "T1 sequence (O15245 whole entry)": "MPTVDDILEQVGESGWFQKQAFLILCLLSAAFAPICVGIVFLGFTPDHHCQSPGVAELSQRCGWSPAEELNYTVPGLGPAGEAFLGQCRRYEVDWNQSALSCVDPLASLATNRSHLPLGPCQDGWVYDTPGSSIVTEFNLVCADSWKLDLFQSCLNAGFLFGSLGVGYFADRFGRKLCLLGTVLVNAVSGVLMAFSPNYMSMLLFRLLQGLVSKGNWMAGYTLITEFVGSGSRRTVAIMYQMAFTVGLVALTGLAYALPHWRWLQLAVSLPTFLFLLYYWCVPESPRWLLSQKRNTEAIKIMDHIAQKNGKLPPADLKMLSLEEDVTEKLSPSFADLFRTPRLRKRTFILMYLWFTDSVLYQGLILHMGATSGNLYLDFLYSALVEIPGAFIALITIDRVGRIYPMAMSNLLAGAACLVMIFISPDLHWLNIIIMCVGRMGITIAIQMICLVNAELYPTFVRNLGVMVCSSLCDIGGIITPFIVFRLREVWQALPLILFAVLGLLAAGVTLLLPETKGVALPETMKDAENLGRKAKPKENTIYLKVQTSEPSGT",
  "assay": "Inhibition of OCT1-mediated [14C]tetraethylammonium uptake in human OCT1 expressing HEK293/PDZK1 cells by scintillation counting",
  "assay_type": "ADME, cell-based",
  "conditions": "human, hek293/pdzk1; call rule not given here",
  "data": [
    {"smiles": "CC[N+](CC)(CC)CC", "note": "[TETRYLAMMONIUM]", "values": [
      {"measurement": "inhibition (INH)", "value": "Active"}
    ]}
  ]
}
